Test results: US7402610B2, “Carbonyl compound containing long-chain branched alkyl group” (Idemitsu Kosan Co., Ltd., priority 2004, dated 2008)

What was measured:
Format in all cases: physicochemical
[1] = Loss on heat (plasticizer evaluation), JIS K6751-4; details: heating at 125° C. for three hours
Protocol: As the plasticizer evaluation, loss on heat was evaluated. In accordance with JIS K6751-4, the decrease in amount after heating at 125° C. for three hours was used as the heating loss.

[2] = Oxidation stability test, JIS K2514, kinematic viscosity before and after heating; details: for Change in kinematic viscosity (at 40° C.) / Change in kinematic viscosity (at 100° C.): after/before heating at 140° C. for 24 hours
Protocol: The oxidation stability of the above synthesized triester was tested and the viscosity before and after testing was measured. The oxidation stability test was conducted in accordance with JIS K2514, wherein the kinematic viscosity was measured at 40° C. and 100° C. after heating for 24 hours at 140° C. in the presence of copper and steel catalysts. The compounds showing a small change (increase) in kinematic viscosity were regarded as excelling in oxidation stability.

[3] = Low temperature fluidity on cooling; details: cooled to −20° C.
[4] = Pour point, JIS K2269
Protocol: The pour point of 3-octyl-tridecanoic acid was measured in accordance with JIS K2269. The pour point was determined to be −37° C. On the other hand, the pour point of a similar compound isostearic acid (2-n-heptylundecanoic acid) was −20° C. (“14303 Chemical Products”, The Chemical Daily Co., Ltd.). Another similar compound 2-octyldodecanoic acid was a solid having a melting point of 35° C.
The pour point which indicates the characteristics of the ester of the invention was measured in accordance with JIS K2269.

[5] = after heating at 140° C. for 24 hours, copper and steel catalysts

| Compound | Decrease in amount after heating (%) [1] [%] | Fluidity when cooled [3] | Kinematic viscosity at 40° C. [2, 5] [mm^2/s] | Change in kinematic viscosity (at 40° C.) [2] | Kinematic viscosity at 40° C. ([2]; before heating) [mm^2/s] | Pour point [4] | Kinematic viscosity at 100° C. [2, 5] [mm^2/s] | Change in kinematic viscosity (at 100° C.) [2] | Kinematic viscosity at 100° C. ([2]; before heating) [mm^2/s] |
| --- | --- | --- | --- | --- | --- | --- | --- | --- | --- |
| CCCCCCCC/C=C\CCCCCCCC(=O)OCCCCCCCC [Comparative Example 4, octyl oleate, reference compound] | 0.30 | – | 19.89 | 1.29 | 15.33 | – | – | – | – |
| trimethylolpropane tri(3-octyl-tridecanoate) [Example 4] | – | – | 67.28 | 1.07 | 62.76 | −50 or less ° C. | 10.24 | 1.03 | 9.95 |
| trimethylolpropane trioleate [Comparative Example 2, reference compound] | – | – | 60.91 | 1.27 | 47.96 | −47.5 °C | 11.24 | 1.16 | 9.66 |

Continued, in another order:

| Decrease in amount after heating (%) [1] [%] | Fluidity when cooled [3] | Compound | Kinematic viscosity at 40° C. [2, 5] [mm^2/s] | Change in kinematic viscosity (at 40° C.) [2] | Kinematic viscosity at 40° C. ([2]; before heating) [mm^2/s] | Pour point [4] | Kinematic viscosity at 100° C. [2, 5] [mm^2/s] | Change in kinematic viscosity (at 100° C.) [2] | Kinematic viscosity at 100° C. ([2]; before heating) [mm^2/s] |
| --- | --- | --- | --- | --- | --- | --- | --- | --- | --- |
| – | did not decrease | CCCCCCCCCCC(CCCCCCCC)CC(=O)OC (centres unmarked) [Example 1, methyl 3-octyl-tridecanoate] | – | – | – | – | – | – | – |
| – | did not decrease | CCCCCCCCCCC(CCCCCCCC)CC(=O)O (centres unmarked) [Example 2, 3-octyl-tridecanoic acid] | – | – | – | −37 °C | – | – | – |
| – | has the fluidity | CCCCCCCCCCC(CC=O)CCCCCCCC (centres unmarked) [Example 3, 3-octyl-tridecanal] | – | – | – | – | – | – | – |
| 0.10 | – | CCCCCCCCCCC(CCCCCCCC)CC(=O)OCCCCCCCC (centres unmarked) [Example 7, octyl 3-octyl-tridecanoate] | 21.74 | 1.04 | 20.08 | – | – | – | – |
